These results are taken from patent publication US20180036302A1, “TREATMENT OF MULTIPLE SCLEROSIS WITH COMBINATION OF LAQUINIMOD AND A STATIN” (Teva Pharmaceutical Industries Ltd., priority 2014, published 2018).

Series [1] concerns MOG induced chronic Experimental Autoimmune Encephalomyelitis (EAE) model. Briefly: MOG induced chronic EAE in C57Bl/6 mice. It counts as in vivo. As to conditions: for % inhibition 1 (incidence) / % inhibition 2 (MMS) / % inhibition 3 (GMS): vs vehicle.
Series [2] can be described thus: in vivo. As to conditions: male, C57BL/6, mouse, po, 5 mg/kg. On the procedure: For all PO administration groups: 1% MC in water (all PO formulations were made just prior to use).
Fasted overnight and fed 4 hr post dose, free access to water
• 1. For plasma samples: An aliquot of 30 μL plasma sample was added with 150 μL ACN which contains IS (Dexamethasane 40 ng/mL, 5 ng/mL) for protein precipitation. The mixture was vortexed for 2 rain and centrifuged at 12000 rpm for 5 min. The 2 μL supernatant was injected into LC-MS/MS. • 2. For diluted plasma samples: An aliquot of 10 μL plasma sample was added with 90 μL blank plasma to obtain the diluted plasma samples, and the sample dilution factor is 10. An aliquot of 10 μL 10-folder-diluted plasma sample was added with 40 μL blank plasma to obtain the diluted plasma samples, and the sample dilution factor is 50. The exaction procedure for diluted samples was same as those for non-diluted samples.
The animals were restrained manually at the designated time points. Approx. 150 μL of blood samples were taken from the animals into K2EDTA tubes via retro-orbital puncture or cardiac puncture for terminal bleeding under anesthesia with Isoflurane. Blood sample was put on ice and centrifuged at 2000 g for 5 min (4° C.) to obtain plasma sample within 15 minutes. Plasma samples were snap frozen by placing into dry-ice.
The plasma samples were stored at approximately −70° C. until analysis. The backup samples are discarded after two months unless specified. The unused dosing solutions are discarded within 1 week after completion of the study.

The conditions of series [3]: in vivo; cited from earlier work.
Series [4] concerns Multiple Sclerosis. Conditions: two phase III trials; cited from earlier work.
[5] abbreviates: Atorvastatin 10 mg/kg BID gavage, Day 1-30.
[6] abbreviates: Atorvastatin 50 mg/kg BID gavage, Day 1-30.
The mark [7] stands for this setting: Laquinimod 5 mg/kg/day gavage, Day 1-30.
Setting [8] is: Laquinimod 25 mg/kg/day gavage, Day 1-30.

Regarding `CC(C)c1c(C(=O)Nc2ccccc2)c(-c2ccccc2)c(-c2ccc(F)cc2)n1CC[C@@H](O)C[C@@H](O)CC(=O)O` [Atorvastatin, atorvastatin], in series [1] (setting [5]), the “Duration” value amounted to 18.1 ± 2.1 days, the GMS value is recorded as 2.5 ± 0.6, the Incidence is given as 15/15 and the MMS value is reported as 3.6 ± 0.5. For the same compound, in series [1] (setting [5]), the “Onset” value was 12.4 ± 1.2 days, the “% inhibition 1 (incidence)” value is reported as 0%, the “% inhibition 2 (MMS)” value is 2.7% and the “% inhibition 3 (GMS)” value was found to be 7.4%. For the same compound, in series [1] (setting [6]), the “Duration” value is reported as 17.2 ± 4.9 days, the GMS value is reported as 2.3 ± 0.7, the Incidence is given as 14/15 and the MMS value was found to be 3.3 ± 1.0. Also, in series [1] (setting [6]), the “Onset” value amounted to 13.8 ± 4.9 days, the “% inhibition 1 (incidence)” value came to 6.7%, the “% inhibition 2 (MMS)” value amounted to 10.8% and the “% inhibition 3 (GMS)” value came out at 14.8%. In addition, the Mortality in series [1] (mouse, in vivo) is 0/15.

As for `CCN(C(=O)c1c(O)c2c(Cl)cccc2n(C)c1=O)c1ccccc1` [Laquinimod], in series [1] (setting [7]), the “Duration” value is listed as 13.5 ± 7.9 days, the GMS value was found to be 1.4 ± 1.0, the Incidence is listed as 12/15 and the MMS value is given as 2.3 ± 1.3. In addition, in series [1] (setting [7]), the Mortality is 0/15, the “Onset” value is listed as 16.3 ± 7.7 days, the “% inhibition 1 (incidence)” value was found to be 20% and the “% inhibition 2 (MMS)” value stood at 37.8%. Moreover, in series [1] (setting [7]), the “% inhibition 3 (GMS)” value came out at 48.1%. For the same compound, in series [1] (setting [8]), the “Duration” value is given as 4.1 ± 6.0 days, the GMS value is recorded as 0.3 ± 0.6, the Incidence is 5/15 and the MMS value is 0.7 ± 1.0. Also, in series [1] (setting [8]), the Mortality is 0/15, the “Onset” value was 25.63 ± 7.5 days, the “% inhibition 1 (incidence)” value was 66.7% and the “% inhibition 2 (MMS)” value worked out at 81.1%. In addition, in series [1] (setting [8]), the “% inhibition 3 (GMS)” value worked out at 91.9%. In addition, in series [2], the AUCINF is 71465 ng·h/mL and the AUClast was 71302 ng·h/mL. Moreover, the AUC(0-inf) (usually total exposure, with the tail of the curve extrapolated) in series [2] (AUCINF) was determined as 86900 ng·h/mL. Further, the AUC(0-t) – broadly, the area under the concentration-time curve up to a stated or last time point – in series [2] (AUClast) was found to be 86700 ng·h/mL. In addition, the peak concentration (Cmax) – broadly, the peak of the concentration-time curve – in series [2] (Cmax) came out at 31100 ng/mL. In series [2] (Terminal t1/2), the half-life – broadly, the time needed for the level to fall by half in the phase considered – is 3.01 h. In addition, in series [2] (Tmax), the Tmax (usually the time at which the peak concentration occurs) was 0.5 h. The oral bioavailability entry in series [3] is recorded as “high oral bioavailability”. In addition, the “safety and tolerability profile” value in series [4] was “favorable safety and tolerability profile”.
